From the NIST ThermoML archive (doi:10.1021/je800085u)

Assay: mn = molality of the nth substance listed, in mol/kg
Settings: 298.15 K, 101 kPa, Liquid, Taylor dispersion method

CCCCCCCCCCP(C)(C)=O [decyldimethylphosphine oxide] + O
Settings | binary diffusion coefficient [m2/s]
m1 = 0 | 5.9e-10
m1 = 0.002 | 5.8e-10
m1 = 0.003 | 5.28e-10
m1 = 0.004 | 2.07e-10
m1 = 0.0077 | 1.75e-10
m1 = 0.0111 | 1.56e-10
m1 = 0.0176 | 1.69e-10
m1 = 0.0215 | 1.63e-10
m1 = 0.0296 | 1.55e-10
m1 = 0.04 | 1.58e-10
